Reference: PubChem BioAssay AID1902 (Broad Institute, 2009)
The source made the active and inactive calls.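 The calls were made as follows: active = EC50 no more than a set limit of log units above the highest dose; inactive = the rest.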

Target: S. pyogenes SKKanGAS, kanamycin survival, BacTiterGlo, 6 h
Experiment: S. pyogenes SKKanGAS kanamycin growth inhibitors – SKKanGAS strain, luminescence, dose confirmation, streptokinase promoter inhibitor project, dose response (AID 1902);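 also: lower survival reflects blocked streptokinase promoter driving kanamycin resistance gene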

| Compound | EC50 |
| --- | --- |
| Nc1n[nH]c(C2CC2)c1N=Nc1ccc(Cl)c(Cl)c1 | 2.05 µM |
| O=C1c2ccccc2C2=Nc3ccccc3SC(c3ccc(Cl)cc3)C12 (centres undefined) | 3.9 µM |
| O=C(O)c1ccc(S(=O)(=O)/N=C2\C=C(Nc3ccccc3F)C(=O)c3ccccc32)cc1 | 3.1 µM |
| Cc1nc2c(-c3ccccc3)c(C)[nH]n2c(=O)c1Cc1ccccc1 | 6.27 µM |
| Cc1nnc(-c2cccc(Br)c2)c2cn(-c3ccc(Br)cc3)nc12 | 3.07 µM |
| O=C(Nc1ccc(Cl)c(Cl)c1)C1CC(=O)N(c2ccc(Br)cc2)C1 (centres undefined) | 4.5 µM |
| C[C@H]1[C@H](C)CC[C@]2(C(=O)O)CC[C@]3(C)C(=CC[C@@H]4[C@@]5(C)C[C@@H](O)[C@H](O)C(C)(C)[C@@H]5CC[C@]43C)[C@H]12 | 2.81 µM |
| O=C(Oc1cccc2c(O)cccc12)c1ccccc1 | > 15 µM (inactive) |
| COc1ccc(C(=O)NC2CCCCCC2)cc1S(=O)(=O)N1CCOCC1 | > 15 µM (inactive) |
| Brc1cc2c(cc1C1Nc3ccccc3C3C=CCC31)OCO2 (centres undefined) | 5.37 µM |
| CCOC(=O)Cc1c(C)nc2c(-c3cccc(Br)c3)c[nH]n2c1=O | 3.53 µM |
| Cc1n[nH]c(C)c1CCCOc1ccccc1 | 5.14 µM |
| Nc1c(Cl)cc(C2=NCCn3c2c2ccc([N+](=O)[O-])cc2[n+]3[O-])cc1Cl | 2.44 µM |
| Cc1cc(C)c(C)c(OCCCOc2cccc3cccnc23)c1 | 13.5 µM |
| CCOC(=O)C(=NC(C)(C)C)NNc1cc(Cl)ccc1Cl | 2.9 µM |
| O=C(Oc1c(Cl)cc(Cl)c2cccnc12)c1cccs1 | 1.08 µM |
| COc1ccc(C2CC(=O)c3cnc(N4CCN(Cc5ccccc5)CC4)nc3C2)cc1 (centres undefined) | 13.7 µM |
| COc1ccc(C(=O)NNC(=S)NC(=O)c2ccccc2)cc1 | 0.995 µM |
| NC(=O)NC(=O)CSc1nc2sc(-c3ccccc3)cc2c(=O)n1-c1ccccc1 | 1.18 µM |
| O=C(CN(c1cccc(Br)c1)S(=O)(=O)c1ccccc1)N/N=C/c1cc([N+](=O)[O-])ccc1O | 0.441 µM |
| CCC1=NN(C(=O)c2ccccc2O)C(O)(c2ccccc2)C1 (centres undefined) | 1.94 µM |
| COc1ccc(-c2sc3ccc(OC)cc3c2C#CCCO)cc1 | 9.27 µM |

| Compound | EC50 |
| --- | --- |
| O=C(N/N=C/c1cc([N+](=O)[O-])ccc1O)c1cccc(N2CCCC2=O)c1 | 1.21 µM |
| CCOc1ccc(NC(=O)c2c(NC(=O)CNCCN3CCOCC3)sc3c2CCC3)cc1 | 1.1 µM |
| O=C(Nc1cccc(-c2nc3ccccc3[nH]2)c1)c1ccc(C(=O)Nc2cccc(-c3nc4ccccc4[nH]3)c2)cc1 | > 15 µM (inactive) |
| O=[N+]([O-])c1ccc(NC(=S)NCCc2ccc(Cl)cc2)cc1 | 1.73 µM |
| O=C(Nc1cccc(F)c1)N1CCCCCC1 | > 15 µM (inactive) |
| Cc1cc2oc(=O)cc(CN(C)Cc3ccccc3)c2cc1C(C)C | 4.52 µM |
| O=C(Nc1ccccc1Cl)/C(Cl)=C(\Cl)S(=O)c1ccccc1 (centres undefined) | 1.98 µM |
| COc1ccc(C(=O)N2CCCC(Nc3ccc(C)c(C)c3)C2)cc1F (centres undefined) | > 15 µM (inactive) |
| Cc1cn(-c2cc(C(=O)Nc3ccc(C)c(NC(=O)C(=O)c4c[nH]c5ccccc45)c3)cc(C(F)(F)F)c2)cn1 | 2.78 µM |
| CCCn1c(NC(=O)C23CC4CC(CC(O)(C4)C2)C3)nc2ccccc21 | 3.09 µM |
| O=C(CC(=O)c1cc(Cl)ccc1O)c1ccccc1 | 1.01 µM |
| S=C(NCCSCc1ccc(Cl)cc1Cl)Nc1ccccc1 | 7.32 µM |
| Cc1ccc(N=Nc2ccc(O)c3ncccc23)cc1 | 0.098 µM |
| O=C(Nc1nc(-c2ccccn2)cs1)c1cccc(-n2cnnn2)c1 | 2.3 µM |
| Cc1nc(NC(=O)c2ccc(Cl)cc2)sc1-c1csc(Nc2cccc(F)c2)n1 | 2.69 µM |
| Cc1cc2c(cc1C)-c1c(ssc1=Nc1ccc(S(N)(=O)=O)cc1)C(C)(C)N2 | 11.7 µM |
| Oc1[nH]c2ccccc2c1N=NC(=S)NCCc1ccccc1 | 4.39 µM |
| O=C(CNc1ccccc1)N/N=C/c1c(O)ccc2ccccc12 | 0.74 µM |
| Cc1cc(C)cc(C(=O)N2CCC(CCC(=O)NC3CC3)CC2)c1 | > 15 µM (inactive) |
| C[C@H]1COC2=C1C(=O)C(=O)c1c2ccc2c1CCCC2(C)C | 3.95 µM |
| CCCCNc1c(-c2ccc(OC)c(SC3CCCCC3)c2)nc2cc(C)ccn12 | 3.89 µM |
| CN1C(=O)NC(c2ccccc2)(C(F)(F)F)S/C1=C(/C#N)c1nnc(N2CCOCC2)n1-c1ccccc1 (centres undefined) | > 15 µM (inactive) |

| Compound | EC50 |
| --- | --- |
| COc1ccc2cc(C(=O)C3CCCN(Cc4cccc(C)n4)C3)ccc2c1 (centres undefined) | 1.84 µM |
| CCc1cc2c(COC(=O)c3cccc(NS(C)(=O)=O)c3)cc(=O)oc2cc1O | 7.84 µM |
| CCN(CC)CCN(C(=O)C1=COCCO1)c1nc2cc(C)cc(C)c2s1 | > 15 µM (inactive) |
| C/C(=N\NC(=O)c1cc(Br)ccc1O)c1ccccn1 | < 0.06 µM |
| CCCOC(=O)c1ccc(Oc2cn[nH]c2-c2ccc(OCC)cc2O)cc1 | 1.37 µM |
| Cc1coc2c1C(=O)C(=O)c1c-2ccc2c(C)cccc12 | 2.75 µM |
| CCN(CC)C(=S)Sc1c(-c2ccccc2)c2cc(Cl)ccc2[nH]c1=O | 0.775 µM |
| O=C(CNc1cccc2ccccc12)N/N=C/c1ccc([N+](=O)[O-])o1 | 1.12 µM |
| C/C(=N\NC(=O)c1cccc2ccccc12)c1ccccn1 | 3.26 µM |
| Cc1ccccc1-c1nc2c3ccccc3nc(=S)n2[nH]1 | 4.01 µM |
| Cc1ccc(C23CC4CC(CC(C(=O)N5CCN(C)CC5)(C4)C2)C3)cc1 | > 15 µM (inactive) |
| CO/N=C(/C(=O)N[C@@H]1C(=O)N2C(C(=O)O)=CCS[C@H]12)c1cnc(N)s1 | < 0.06 µM |
| O=C(CNC(=O)c1ccccc1Br)N/N=C\c1cc([N+](=O)[O-])cc(Br)c1O | 8.11 µM |
| N#C/C(=C(/O)c1ccc2c(c1)OCO2)c1nc2cc(C(F)(F)F)ccc2s1 | 2.43 µM |
| COc1ccc(CNC(=O)Cc2csc(NC(=O)Nc3ccccc3OC)n2)cc1 | 15 µM |
| CC(C)COc1ccc(-c2nn(-c3ccccc3)cc2/C=C2/SC(=S)N(CC(=O)O)C2=O)cc1 | 2.18 µM |
| COc1ccccc1C(=O)NNC(=O)C(=O)Nc1cccc(Cl)c1C | 3.44 µM |
| Cn1c(CNC(=O)CNC(=O)c2ccc(F)cc2)cc(=O)n(C)c1=O | > 15 µM (inactive) |
| COCCn1c(-c2cc(OC)c(OC)c(OC)c2)nc2oc3cc(OC)ccc3c(=O)c2c1=O | > 15 µM (inactive) |
| C/C(=N\Nc1nc(N2CCCCCC2)nc(N2CCCCCC2)n1)c1ccccc1 | 3.69 µM |
| O=C(Nc1nnc(C2=COCCO2)o1)c1cccc(F)c1 | 2.37 µM |
| COc1cc2c(C#N)c(N3CCN(c4ccccc4OC)CC3)nc(N)c2c(N)n1 | 4.67 µM |

| Compound | EC50 |
| --- | --- |
| S=C(NCc1ccco1)N1CCN(c2nc(-c3ccc(Cl)cc3)cs2)CC1 | 9.92 µM |
| FC(F)(F)c1cccc(NC(=S)Nc2ccc(Cl)cc2Cl)c1 | 2.83 µM |
| Cc1ccc2sc(NNC(=O)c3ccc4c(c3)OCCO4)nc2c1C | 3.79 µM |
| Oc1ccc(/C=N/n2c3ccccc3c3ccccc32)cc1 | 5.79 µM |
| Clc1ccccc1CN(Cc1ccccc1)c1ncnc2nc[nH]c12 | 3.85 µM |
| Cc1c(Cl)cccc1NC(=S)NCCC(c1ccccc1)c1ccccc1 | 9.25 µM |
| O=C(Nc1ncc(Cc2cccc(Cl)c2)s1)c1cccs1 | 3.91 µM |
| CN(C)CCCNC(=S)NCC(c1ccc(Cl)cc1Cl)c1c[nH]c2ccccc12 (centres undefined) | 7.22 µM |
| COc1ccccc1CNC(=O)c1ccc(-c2ccccc2Cl)o1 | 9.96 µM |
| CCCC(=O)NC(c1ccco1)c1cc(Cl)c2cccnc2c1O (centres undefined) | 1.5 µM |
| Cc1ccc(NC(=O)CN(C)Cc2nc3c(Br)cc(Br)cc3c(=O)[nH]2)cc1 | 3.79 µM |
| Cc1cccc(/C=N/NC(=O)c2ccc3c(c2)OCCO3)c1O | 4.39 µM |
| Cc1ccnn2c(-c3ccccc3)c3c(=O)n(C)c(=O)n(C)c3c12 | > 15 µM (inactive) |
| C/C(=N\NC(=O)c1cc2ccccc2cc1O)c1cc2ccccc2o1 | 1.47 µM |
| CC(C)(C)c1ccc(C(=O)NC(=S)NNC(=O)COc2ccccc2)cc1 | < 0.06 µM |
| Cc1ccc(C(=O)OC2OC(=O)C(Cl)=C2N2CCOCC2)cc1 (centres undefined) | 0.884 µM |
| CCn1c(O)c(/C=N/N=C/c2ccccc2)c2ccc(C3=NNC(=O)CC3)cc21 | 4.3 µM |
| Cc1nc2c(=O)n(C)c(=O)nc-2n(C)n1 | 2.77 µM |
| NC(=O)NC(=O)CSc1nc2cc([N+](=O)[O-])ccc2n1-c1cccc(C(F)(F)F)c1 | 0.256 µM |
| O=C(/C=C/c1cccs1)NC(=S)NNC(=O)Cc1cccs1 | 2.56 µM |
| S=C1NC(C23CC4CC(CC(C4)C2)C3)=CC(c2ccc3c(c2)OCO3)N1 (centres undefined) | 6.76 µM |
| CC(Oc1cccc(Cl)c1)C(=O)Nc1ccccc1N1CCCCC1 (centres undefined) | 3.04 µM |

| Compound | EC50 |
| --- | --- |
| Cn1c(=O)c2c(nc(SCc3ccccc3)n2Cc2ccc(Cl)cc2)n(C)c1=O | 2.3 µM |
| Oc1ccccc1/C=N/NC(=S)NC1CC2CCC1C2 (centres undefined) | 3.74 µM |
| Cc1cc(C(C#N)c2ccc(Cl)cc2)c(Cl)cc1NC(=O)c1cc(I)cc(I)c1O (centres undefined) | 0.082 µM |
| Nc1ccc(C#Cc2ccc3oc4ccccc4c(=O)c3c2)cc1 | 1.39 µM |
| COc1cccc(NP(=O)(Oc2ccc(Cl)cc2)Oc2ccc(Cl)cc2)c1 | 3.22 µM |
| O=C(O)c1ccc(N/N=C/c2ccc(-c3ccc(Br)cc3)o2)cc1 | 2.36 µM |
| COC(=O)c1cc(-c2cccc(OC)c2)c2c(=O)[nH]c(=O)n(C)c2n1 | 4.31 µM |
| O=c1[nH]c2ccc(Cl)cc2c(-c2ccccc2)c1SC(=S)N1CCOCC1 | 0.697 µM |
| O=c1c2cc(Br)ccc2nc(-c2cccc(Cl)c2)n1O | 1.09 µM |
| NCCS(=O)(=O)NC1CCCCC1 | > 15 µM (inactive) |
| COc1ccc(-c2csc(Nc3ccc(S(=O)(=O)Nc4cc(C)on4)cc3)n2)cc1C | 6.44 µM |
| O=C(N/N=C/c1cc([N+](=O)[O-])ccc1O)c1cc(-c2ccccc2)nc2ccccc12 | 0.603 µM |
| N#C/C(=N\Nc1ccc(S(=O)(=O)N2CCOCC2)cc1)C(N)=S | > 15 µM (inactive) |
| CCCc1cc(=O)n2[nH]cc(-c3ccc(Cl)cc3)c2n1 | 1.78 µM |
| O=c1c2c([N+](=O)[O-])cc([N+](=O)[O-])cc2sn1Cc1ccccc1 | 6.62 µM |
| Cc1nc(-c2ccccn2)nc(SCC(=O)c2ccccc2)c1Cl | 0.811 µM |
| Cc1ccc(-c2cc(-c3cccc(F)c3)n[nH]2)c(O)c1 | 4.32 µM |
| CCOc1ccc(N(C)c2ccc(/C=C3/SC(=S)NC3=O)cc2)cc1 | 4.3 µM |
| Cc1ccc(-n2c(O)c(C=Nc3ccccc3-c3n[nH]c(=S)[nH]c3=O)c3ccccc3c2=O)cc1C | 0.915 µM |
| O=c1c2cn[nH]c2nc(SCc2c(F)cccc2F)n1-c1ccc(Cl)cc1 | 11.1 µM |
| CCCCC(CC)CN1C(=O)/C(=C/c2ccncc2)SC1=S (centres undefined) | 2.83 µM |
